Assay results: ChEMBL document CHEMBL1201862, “PubChem BioAssay data set” (2004)
Active and inactive are the calls of the source.

Legend:
Caspase-6 = biological target: T1, Caspase-6 (Homo sapiens, UniProt P55212); assay: human caspase-6 inhibitors, dose response, biochemical, VEID-R110 fluorescence, cherry-pick (AID 720632)
T1 sequence (P55212 whole entry): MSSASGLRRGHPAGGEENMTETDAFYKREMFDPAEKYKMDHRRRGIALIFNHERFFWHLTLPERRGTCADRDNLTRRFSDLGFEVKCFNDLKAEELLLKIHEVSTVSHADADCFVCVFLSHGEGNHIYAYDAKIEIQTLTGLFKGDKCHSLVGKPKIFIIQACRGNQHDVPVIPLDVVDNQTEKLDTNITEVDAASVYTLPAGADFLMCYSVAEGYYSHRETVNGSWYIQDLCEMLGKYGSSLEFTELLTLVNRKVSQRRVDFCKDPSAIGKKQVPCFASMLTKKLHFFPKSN

[1] = biological target: T2, Histone-lysine N-methyltransferase NSD2 (Homo sapiens, UniProt O96028); type: biochemical
T2 sequence (O96028 whole entry): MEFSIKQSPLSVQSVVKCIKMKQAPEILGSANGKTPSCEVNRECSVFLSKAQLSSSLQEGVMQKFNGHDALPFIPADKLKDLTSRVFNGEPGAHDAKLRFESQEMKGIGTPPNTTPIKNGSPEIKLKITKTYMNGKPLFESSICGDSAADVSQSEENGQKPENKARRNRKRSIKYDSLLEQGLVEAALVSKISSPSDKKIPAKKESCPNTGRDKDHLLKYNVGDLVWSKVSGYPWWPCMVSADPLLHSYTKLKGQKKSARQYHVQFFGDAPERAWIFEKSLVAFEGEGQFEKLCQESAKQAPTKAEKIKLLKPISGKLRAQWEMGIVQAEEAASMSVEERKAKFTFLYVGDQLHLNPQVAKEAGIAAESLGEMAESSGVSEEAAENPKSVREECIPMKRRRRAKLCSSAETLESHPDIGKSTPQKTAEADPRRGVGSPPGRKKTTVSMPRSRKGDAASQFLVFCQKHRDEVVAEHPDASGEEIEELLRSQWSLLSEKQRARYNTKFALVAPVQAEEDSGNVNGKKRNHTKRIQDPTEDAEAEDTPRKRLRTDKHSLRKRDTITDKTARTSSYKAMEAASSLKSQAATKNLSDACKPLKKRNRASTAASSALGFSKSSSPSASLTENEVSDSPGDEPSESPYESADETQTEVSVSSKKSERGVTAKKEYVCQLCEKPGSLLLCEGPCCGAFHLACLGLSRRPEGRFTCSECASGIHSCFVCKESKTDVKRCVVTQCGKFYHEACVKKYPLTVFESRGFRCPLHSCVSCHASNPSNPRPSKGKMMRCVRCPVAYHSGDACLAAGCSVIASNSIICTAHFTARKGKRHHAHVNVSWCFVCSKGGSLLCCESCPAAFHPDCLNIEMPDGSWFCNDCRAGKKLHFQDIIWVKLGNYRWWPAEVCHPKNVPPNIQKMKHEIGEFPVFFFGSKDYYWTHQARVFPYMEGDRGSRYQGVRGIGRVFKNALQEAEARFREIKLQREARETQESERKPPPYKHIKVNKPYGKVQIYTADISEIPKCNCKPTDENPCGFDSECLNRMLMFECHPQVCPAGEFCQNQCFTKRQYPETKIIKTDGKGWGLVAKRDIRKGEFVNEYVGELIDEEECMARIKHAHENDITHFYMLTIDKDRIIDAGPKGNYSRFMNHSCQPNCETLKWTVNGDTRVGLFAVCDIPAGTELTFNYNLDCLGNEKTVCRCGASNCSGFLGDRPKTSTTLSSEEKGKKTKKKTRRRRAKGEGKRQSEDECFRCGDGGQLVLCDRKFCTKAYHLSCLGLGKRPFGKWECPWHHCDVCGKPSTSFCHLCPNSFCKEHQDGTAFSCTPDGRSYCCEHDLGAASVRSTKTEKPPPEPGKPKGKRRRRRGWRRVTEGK

[2] = cytotoxicity toward NIH3T3 fibroblasts, dose response, counter-screen, cell-based, ATP luminescence, mouse fibroblasts (AID 2010); type: functional;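 note: cells exposed to compound for about 90 hours before reading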
INS1 = assay: beta cell apoptosis inhibitors, cytokine rescue, dose response, luminescence, retest (AID 449756); type: functional, cell-based; details: Rattus norvegicus;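 note: cell death triggered by IL-1 beta plus TNF-alpha plus IFN-gamma mixture; protective hits raise ATP signal compared with cytokine alone wells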
Paired box protein Pax-8 = Paired box protein Pax-8 (Homo sapiens, UniProt Q06710); assay: inhibitors of PAX8-driven TPO luciferase reporter, dose response, RMG-I cells, cherry-pick (AID 687027); type: functional, cell-based;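 note: luciferase reporter driven by Pax8 target thyroperoxidase promoter measured by SteadyGlo luminescence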
[3] = cytotoxicity in COV362 ovarian cancer cells, dose response, cytotoxicity control for PAX8 inhibitor project, cell-based, plate reader, dry powder, SA12 (AID 743144); type: functional
[4] = A2780 ovarian cancer cell cytotoxicity, dose response, cytotoxicity control, plate reader, dry powder samples (AID 743046); type: functional, cell-based
[5] = PAX5 activity inhibitors, dose response, selectivity assay for PAX8 inhibitor project, cell-based, plate reader, dry powder samples (AID 743047); type: functional;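 note: HEK293 cells carrying a Pax5 driven CD19 promoter luciferase reporter; potency of inhibitors that lower reporter luminescence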
[6] = biological target: Luciferin 4-monooxygenase (Photinus pyralis, UniProt P08659); assay: Counter Screen for Luciferase-based Assay Positives. [Related pubchem assays: 620, 618, 411 ]
[7] = Intein inhibitors as potential Tuberculosis drugs, a cytotoxicity screen. [Related pubchem assays (depositor defined):AID2221, AID2223, AID434968, AID435010, AID449749, AID449750, AID489010]; type: functional
cells = type: functional
[8] = off-target signal loss in HeLa-CEM21 co-culture – HeLa F-luc CTL cells, cherry-picked, counter-screen for HIV-1 Env fusion inhibitor project, dose response (AID 652040); type: functional, cell-based;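 note: potency for signal decrease marking cytotoxic or nonspecific inhibition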
[9] = inhibitors of firefly luciferase expression or activity, dose response, H4 neuroglioma cells, luminescence (AID 1990); type: functional, cell-based
[10] = insulin promoter down-regulators in MIN6 cells, imaging, high-content screening, mouse beta cells (AID 1628); type: functional
[11] = biological target: T3, Alkaline phosphatase, tissue-nonspecific isozyme (Homo sapiens, UniProt P05186); assay: TNAP enzyme activators, dose response, selectivity assay for human IAP activator project, biochemical, TNAP isozyme, human IAP uHTS hits (AID 488886); type: functional;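 note: potency of compounds raising TNAP activity as a selectivity check on IAP activators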
T3 sequence (P05186 whole entry): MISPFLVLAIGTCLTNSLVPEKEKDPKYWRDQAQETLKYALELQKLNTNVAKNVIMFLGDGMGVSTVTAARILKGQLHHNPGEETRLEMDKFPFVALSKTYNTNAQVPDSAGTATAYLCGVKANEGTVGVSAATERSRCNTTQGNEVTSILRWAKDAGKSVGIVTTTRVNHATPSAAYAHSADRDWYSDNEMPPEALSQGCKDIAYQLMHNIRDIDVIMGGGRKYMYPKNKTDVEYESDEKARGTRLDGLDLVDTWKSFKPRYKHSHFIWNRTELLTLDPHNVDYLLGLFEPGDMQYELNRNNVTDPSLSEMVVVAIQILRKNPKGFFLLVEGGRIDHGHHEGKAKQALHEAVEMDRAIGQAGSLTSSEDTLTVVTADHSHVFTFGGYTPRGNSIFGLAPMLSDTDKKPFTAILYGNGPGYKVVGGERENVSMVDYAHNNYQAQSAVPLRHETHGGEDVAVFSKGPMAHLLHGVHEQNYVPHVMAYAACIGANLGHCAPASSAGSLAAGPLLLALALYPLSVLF
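Throughout, for CC50: cells exposed to compound for 72 hours before luminescence readout.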

Paired box protein Pax-8, sequence (Q06710 whole entry): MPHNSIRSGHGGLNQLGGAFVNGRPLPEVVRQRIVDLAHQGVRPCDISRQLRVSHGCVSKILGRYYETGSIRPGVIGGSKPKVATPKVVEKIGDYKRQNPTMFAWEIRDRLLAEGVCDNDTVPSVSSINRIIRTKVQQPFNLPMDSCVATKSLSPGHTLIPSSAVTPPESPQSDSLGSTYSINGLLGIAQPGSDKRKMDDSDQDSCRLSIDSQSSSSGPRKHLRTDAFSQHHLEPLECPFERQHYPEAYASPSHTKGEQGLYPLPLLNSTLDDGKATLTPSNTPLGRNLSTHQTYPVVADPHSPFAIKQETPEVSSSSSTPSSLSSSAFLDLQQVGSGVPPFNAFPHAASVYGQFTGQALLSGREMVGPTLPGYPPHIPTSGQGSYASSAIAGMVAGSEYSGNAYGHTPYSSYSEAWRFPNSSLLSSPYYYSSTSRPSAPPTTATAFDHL
Luciferin 4-monooxygenase, sequence (P08659 whole entry): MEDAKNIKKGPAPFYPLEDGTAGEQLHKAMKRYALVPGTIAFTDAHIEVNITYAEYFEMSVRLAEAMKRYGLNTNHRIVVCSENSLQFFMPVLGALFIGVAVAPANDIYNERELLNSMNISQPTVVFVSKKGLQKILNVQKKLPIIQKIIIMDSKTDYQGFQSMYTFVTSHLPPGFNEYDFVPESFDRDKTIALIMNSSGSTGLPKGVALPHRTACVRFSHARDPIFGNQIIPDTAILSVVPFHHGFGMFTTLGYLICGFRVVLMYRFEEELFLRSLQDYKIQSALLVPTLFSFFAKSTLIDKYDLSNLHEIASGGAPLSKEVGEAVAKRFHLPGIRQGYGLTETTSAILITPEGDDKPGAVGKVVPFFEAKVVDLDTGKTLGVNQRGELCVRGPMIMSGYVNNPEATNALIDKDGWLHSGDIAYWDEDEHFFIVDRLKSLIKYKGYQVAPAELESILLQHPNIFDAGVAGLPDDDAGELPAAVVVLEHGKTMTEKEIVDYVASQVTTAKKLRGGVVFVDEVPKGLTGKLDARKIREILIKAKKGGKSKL

In the case of O=C(N/N=C1\C/C(=N\NC(=O)c2ccncc2)c2ccccc21)c1ccncc1, the AC50 (Caspase-6) is reported as 749 nM (active) and the AC50 [1] is reported as 4.72 µM (active).
In the case of CCCCC(=O)NC(c1ccccc1)c1ccc2cccnc2c1O (stereo not drawn), the EC50 [2] is reported as 1.03 µM (active), the AC50 (INS1) is reported as 614 nM (active) and the AC50 (Paired box protein Pax-8) is reported as 3.24 µM (active). The AC50 [3] was 3.28 µM (active), the AC50 [4] was 2.13 µM (active) and the AC50 [5] was 2.37 µM (active).
In the case of COc1ccc(-n2c3nc4ccccc4nc3c3c(=N)oc(C)nc32)cc1, the AC50 [1] is reported as > 20 µM (inactive).
For CC(=O)N(Cc1ccc(F)cc1)C1=C(NCCc2ccccc2)C(=O)c2ccccc2C1=O, the EC50 [6] was 7.95 µM (active), the CC50 [7] was 5.56 µM (active) and the IC50 (cells) was 3.23 µM (active). The AC50 (INS1) was 2180 nM (active) and the AC50 [8] was 5.21 µM (active).
With O=C(/C=C/c1cccs1)NC(=S)NNC(=O)c1ccccc1O the EC50 [9] was > 120 µM (not active), the IC50 [10] was 2.78 µM (active) and the EC50 [11] was 11.8 µM (active). The AC50 (Paired box protein Pax-8) was 2.35 µM (active).
